In patent US10464912B2, “Choline cocrystal of epalrestat” (BIONEVIA PHARMACEUTICALS, INC., priority 2008, dated 2019):

Settings: ambient temperature, after approximately 24 hours, FIG. 6A
Procedure: Samples were taken at approximately 1, 3, 6, and 24 hours, and analyzed by UV spectrophotometry using a SpectraMax M2 UV-VIS spectrophotometer. Wavelength calibration and photometric accuracy were performed using the SpectraMax Pro 5 software as an internal calibration of the instrument. The detector was zeroed with a reference well on a microplate filled with water on which data were obtained, and those data were subtracted from collected data. Samples were analyzed in the UV range at room temperature in the wells of a 96-well quartz plate.

dissolved concentration of epalrestat (solubility in water): 249 µg/mL
Structure (SMILES): CC(/C=C1\SC(=S)N(CC(=O)O)C1=O)=C\c1ccccc1 [choline hydrogen diepalrestat]
